Tests used:
[1] = test system: damaged skin from diabetic (STZ injected) C57BL/6J mice; test: Reconstruction of the hypodermis layer in damaged diabetic skin (H&E histology); format: in vivo; details: 7-9 days treatment; insulin 0.1 unit + peptide 1 μM, or adipsin 1 μM
Method: Damaged skin from diabetic (STZ injected) C57BL/6J mice was treated with either PBS (control); a mixture of insulin (0.1 unit) and the N-myristoylated PKCα pseudosubstrate peptide of SEQ ID NO: 1 (1 μM); or adipsin (1 μM) for 7-9 days. Skin biopsies were then collected and embedded in paraffin, and histological sections were performed and stained with H&E. The sections were analyzed for presence of the hypodermis layer presented as a continuous layer of adipocytes, and the percent of total animals per each group with fully reconstituted hypodermis is shown in FIGS. 11A-11B.

[2] = test system: primary mouse keratinocytes; test: Filaggrin expression in differentiating keratinocytes (Western blot of cytoskeletal fraction); format: cell-based; details: 50, 150 and 300 nM; 0.12 mM Ca2+
Method: Primary mouse keratinocytes were cultured in 0.05 mM Ca^+2 MEM and differentiation was induced by elevating Ca^+2 concentrations to 0.12 mM. Keratinocytes were treated with either PBS (control) or different concentrations (50, 150 and 300 nM) of troglitazone, a PPARγ activator. The cells were lysed and the cytoskeletal fraction was subjected to SDS-PAGE and blotted with anti-filaggrin antibody.

[3] = test system: damaged skin of diabetic (STZ injected) C57BL/6J mice; test: Inflammatory response in damaged skin of diabetic mice (H&E histology, abscess formation and leukocytosis); format: in vivo; details: adiponectin 0.1 μg/ml for 7 days; non-treated control 90%; severe = both abscess and leukocytosis
Method: Damaged skin of diabetic (STZ injected) C57BL/6J mice was treated with either PBS (control) or adiponectin (0.1 μg/ml) for 7 days (total n=18). Thereafter, skin biopsies were collected, embedded in paraffin, and analyzed for inflammation by H&E histological staining. Inflammation was graded by abscess formation and excessive leukocytosis in the skin and proximal blood vessels, and severe inflammation was considered when both abscess and leukocytosis were apparent.
In the next step, damaged skin from diabetic (STZ injected) C57BL/6J mice was treated with either PBS (control); a mixture of insulin (0.1 unit) and the N-myristoylated PKCα pseudosubstrate peptide of SEQ ID NO: 1 (1 μM); or Copolymer-1 (Teva Pharmaceutical Industries, Israel), (55 μg/ml) for 9 days (n=6 per each group). […] Thereafter, skin biopsies were collected, embedded in paraffin, and analyzed for inflammation by H&E histological staining. Inflammation was graded as described above.

adipsin: adipokine, complement factor D secreted by adipocytes
reconstitution of the hypodermis layer (FIGS. 11A-11B) [1]: can reconstruct the hypodermal subcutaneous layer

Cc1c(C)c2c(c(C)c1O)CCC(C)(COc1ccc(CC3SC(=O)NC3=O)cc1)O2 (stereo not drawn) [troglitazone, 5-(4-(6-hydroxy-2,5,7,8-tetramethylchroman-2-yl-methoxy)benzyl)-2,4-thiazolidinedione]
filaggrin expression (terminal differentiation marker, FIG. 12) [2]: upregulation of filaggrin expression

B1: adiponectin: adipokine, a bioactive molecule secreted by adipocytes (protein, UniProt Q15848 19-244, looked up)
Adiponectin: ETTTQGPGVLLPLPKGACTGWMAGIPGHPGHNGAPGRDGRDGTPGEKGEKGDPGLIGPKGDIGETGVPGAEGPRGFPGIQGRKGEPGEGAYVYRSAFSVGLETYVTIPNMPIRFTKIFYNQQNHYDGSTGKFHCNIPGLYYFAYHITVYMKDVKVSLFKKDKAMLFTYDQYQENNVDQASGSVLLHLEVGDQVWLQVYGEGERNGLYADNDNDSTFTGFLLYHDTN
percent of animals exhibiting severe inflammation of the skin [3]: 20%

Source: patent US8367606B2, “Method and compositions for prevention and treatment of diabetic and aged skin” (HealOr Ltd., priority 2005, dated 2013)
